Key:
Podocin = biological target: T1, Podocin (Mus musculus, UniProt Q91X05); assay: Detergent-resistant membrane (DRM) fractionation by density gradient centrifugation; format: cell-based; details: limited cholesterol depletion with MBCD; readdition of cholesterol, FIG. 1D
T1 construct: expressed in transfected cells; host or cells: HEK 293T
T1 sequence (Q91X05 1-385): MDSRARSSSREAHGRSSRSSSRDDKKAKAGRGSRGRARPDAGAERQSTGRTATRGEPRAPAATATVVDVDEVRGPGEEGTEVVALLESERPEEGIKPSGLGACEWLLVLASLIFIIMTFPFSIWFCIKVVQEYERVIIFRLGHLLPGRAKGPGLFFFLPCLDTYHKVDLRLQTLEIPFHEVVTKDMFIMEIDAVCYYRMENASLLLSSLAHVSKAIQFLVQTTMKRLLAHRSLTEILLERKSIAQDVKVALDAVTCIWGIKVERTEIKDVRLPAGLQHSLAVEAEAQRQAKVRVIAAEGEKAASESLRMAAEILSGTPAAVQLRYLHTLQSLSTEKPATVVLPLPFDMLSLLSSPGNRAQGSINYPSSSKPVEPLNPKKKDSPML
Description: Preparation of Detergent-Resistant Membrane Domains and Cholesterol Measurement—For preparation of low-density Triton® X-100—insoluble membrane domains (DRM; LDF) HEK 293T cells were homogenized by 20 strokes in a Dounce homogenizer in 1 ml of MBS buffer (250 mM NaCl, 5 mM EDTA, 10 mM Tris, pH 7.4, proteinase inhibitors) in the presence of 1% Triton® X-100 and centrifuged for ten minutes at 3,000×g at 4° C. The lysates were incubated for 45 minutes on ice in the presence of 1% Triton® X-100, adjusted to 45% sucrose and pipetted at the bottom of an ultracentrifuge tube. Samples were then overlaid with a sucrose step gradient (2 ml of 30% sucrose and 1 ml of 5% sucrose in MBS) as described previously {Huber, 2003 #205}. Gradients were centrifuged for 20 hours at 200,000×g at 4° C. in a swing-out rotor, and seven fractions ([…] each) were collected starting from the top and analyzed by SDS-PAGE. Cholesterol was measured using the Amplex® Red Cholesterol Assay Kit (Molecular Probes).
Cell Culture Studies. Most cell studies used HEK 293T cells that were grown in DMEM as described [Huber et al. (2001) J. Biol. Chem. 18:18]. Cholesterol-depleted cells were prepared by growing cells in DMEM with pravastatin (8 μM) for two days and then methyl-β-cyclodextrine (MBCD; 5 mM) for 30 minutes just before the experiment. […]

[1] = biological target: T2, NusA fused to the cholesterol binding domain of Podocin (amino acids 119-284) (Mus musculus, UniProt Q91X05); assay: In vitro cholesterol interaction, scintillation counting of bead-bound recombinant protein
T2 construct: made in house; host or cells: E. coli
T2 sequence (Q91X05 119-284): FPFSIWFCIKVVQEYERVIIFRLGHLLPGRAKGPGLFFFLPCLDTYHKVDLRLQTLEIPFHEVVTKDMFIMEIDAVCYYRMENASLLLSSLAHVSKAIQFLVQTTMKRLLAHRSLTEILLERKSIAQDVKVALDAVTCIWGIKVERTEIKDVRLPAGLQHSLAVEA
Description: In vitro cholesterol interaction. Podocin truncations were cloned into various bacterial expression vectors and tested for the expression of soluble recombinant fusion proteins. […] Purity of the preparation was confirmed on Coomassie gels. For in vitro cholesterol interaction assays 2-20 μg of affinity purified Podocin protein was bound to 30 μl of Ni+ beads and incubated with 0.1 μCi [^3H]cholesterol (Amersham) complexed with low amounts of cyclodextrine. After binding for 10 minutes at 37° C. beads were washed extensively and counted in a scintillation counter. To confirm equal loading of the beads aliquots of the bound protein were run on Coomassie gels. Competition experiments were performed with 1 μg of affinity purified Podocin protein fused to NusA or NusA alone as a control. Samples were incubated with radioactively labeled cholesterol in the absence (no cold competition) or presence (cold competition) of varying amounts of […]. Cold competition was approximately 100-fold excess of cold cholesterol. The sample was washed extensively and subjected to scintillation counting.
The importance of different regions of Podocin for cholesterol binding was tested by fusing them to the extracellular and transmembrane domains of Nephrin. […]

Q: With CC(C)CCC[C@@H](C)[C@H]1CC[C@H]2[C@@H]3CC=C4C[C@@H](O)CC[C@]4(C)[C@H]3CC[C@]12C [cholesterol] as the compound, how does the “Podocin in DRM fractions” value (Podocin) read?
A: could be reversed

Q: What about the “direct binding of [3H]cholesterol in vitro” value ([1]; Podocin fragments produced in E. coli, 10 minutes at 37° C.) of the same compound?
A: sufficient for cholesterol binding

Q: What about the “cold competition of [3H]cholesterol binding” value ([1]; approximately 100-fold excess of unlabeled cholesterol) of the same compound?
A: competed
